We go through 22 compounds from patent publication US8324227B2, “Thieno[2,3-D]-pyrimidin-4(3H)-one compounds with antifungal properties and process thereof” (FDC Limited, priority 2008, dated 2012).

Experiment in all cases: Antifungal susceptibility, MIC by broth macro-dilution method
Experiment [1] deals with F. proliferatum (ATCC 10052). Type of experiment: cell-based, Fusarium proliferatum. The conditions noted are these: end points after 48 hours, NI till x = no inhibition up to x; for MIC: Fusarium proliferatum, ATCC10052, RPMI 1640 medium with MOPS buffer, read-out: MIC against fungi, F. proliferatum (ATCC 10052); for MIC against fungi, F. proliferatum (ATCC 10052): RPMI 1640 medium with MOPS buffer. The method, then: (§1) In vitro evaluation of antifungal activity was performed by determining the minimum inhibitory concentration (MIC). Anti-fungal susceptibility testing of these anti-fungal compounds was done by broth dilution method using RPMI 1640 medium with MOPS buffer. Known anti-fungal agents like fluconazole and amphotericin-B were used as positive control. End points were determined after 48 hours visually and by using spectrophotometer wherever necessary. Different dilutions were, tried and various sets of experiments performed.

Experiment [2] relates to C. albicans (ATCC 24433). The format is cell-based, Candida albicans. Particulars: end points after 48 hours, NI till x = no inhibition up to x; for MIC: Candida albicans, ATCC24433, RPMI 1640 medium with MOPS buffer, read-out: MIC against fungi, C. albicans (ATCC 24433); for MIC against fungi, C. albicans (ATCC 24433): RPMI 1640 medium with MOPS buffer. The method, then:
as §1

In experiment [3] the test system is A. niger (ATCC 16404). The format is cell-based, Aspergillus niger. Particulars: end points after 48 hours, NI till x = no inhibition up to x; for MIC: Aspergillus niger, ATCC16404, RPMI 1640 medium with MOPS buffer, read-out: MIC against fungi, A. niger (ATCC 16404); for MIC against fungi, A. niger (ATCC 16404): RPMI 1640 medium with MOPS buffer. The method, then:
as §1

Each structure is given as a SMILES string. Values after ≈ are worked out from the molar mass of the structure shown.

What is called MIC is the lowest concentration that inhibits growth of the organism. For `O=c1c2cc(CCCCOCc3ccccc3)sc2ncn1CC(O)(Cn1cncn1)c1ccc(F)cc1F` (stereo not drawn) [Compound 1-A01, 6-(4-Benzyloxybutyl)-3-[2-(2,4-difluorophenyl)-2-hydroxy-3-[1,2,4]triazol-1-ylpropyl]-thieno[2,3-d]pyrimidin-4(3H)-one], the minimum inhibitory concentration (MIC) in experiment [1] is more than 4 µg/mL; in experiment [2], 0.06 to 0.12 µg/mL (≈ 0.109 to 0.218 µM); in experiment [3] it was more than 4 µg/mL.
As to `O=c1c2cc(CCCOCc3ccccc3)sc2ncn1CC(O)(Cn1cncn1)c1ccc(F)cc1F` (stereo not drawn) [Compound 1-A02, 6-(3-Benzyloxypropyl)-3-[2-(2,4-difluorophenyl)-2-hydroxy-3-[1,2,4]-triazol-1-ylpropyl]-thieno[2,3-d]pyrimidin-4(3H)-one], the results for the MIC in experiment [1], in experiment [2] and in experiment [3] were more than 4 µg/mL, 0.06 to 0.12 µg/mL (≈ 0.112 to 0.223 µM) and more than 4 µg/mL, respectively.
As for `CCCCCCc1cc2c(=O)n(CC(O)(Cn3cncn3)c3ccc(F)cc3F)cnc2s1` (stereo not drawn) [Compound 1-A03, 3-[2-(2,4-Difluorophenyl)-2-hydroxy-3-[1,2,4]-triazol-1-yl-propyl]-6-(n-hexyl)-thieno[2,3-d]pyrimidin-4(3H)-one], the MIC in experiment [1] was more than 2 µg/mL; in experiment [2], 0.03 to 0.06 µg/mL (≈ 0.0634 to 0.127 µM); in experiment [3], more than 2 µg/mL.
For `CCCCCc1cc2c(=O)n(CC(O)(Cn3cncn3)c3ccc(F)cc3F)cnc2s1` (stereo not drawn) [Compound 1-A04, 3-[2-(2,4-Difluorophenyl)-2-hydroxy-3-[1,2,4]-triazol-1-yl-propyl]-6-n-pentylthieno[2,3-d]pyrimidin-4(3H)-one], the MIC in experiment [1] is more than 4 µg/mL; in experiment [2] it was 0.03 to 0.06 µg/mL (≈ 0.0653 to 0.131 µM); in experiment [3], more than 4 µg/mL.
As for `CCCCc1c(CCC)sc2ncn(CC(O)(Cn3cncn3)c3ccc(F)cc3F)c(=O)c12` (stereo not drawn) [Compound 1-A05, 5-n-Butyl-3-[2-(2,4-difluorophenyl)-2-hydroxy-3-[1,2,4]-triazol-1-yl-propyl]-6-n-propyl-thieno[2,3-d]pyrimidin-4(3H)-one], the minimal inhibitory concentration (MIC) in experiment [1] was more than 4 µg/mL; in experiment [2], 2 to 4 µg/mL (≈ 4.1 to 8.2 µM); in experiment [3] it was more than 4 µg/mL.
Take `CCCCCCCc1cc2c(=O)n(CC(O)(Cn3cncn3)c3ccc(F)cc3F)cnc2s1` (stereo not drawn) [Compound 1-A06, 3-[2-(2,4-Difluorophenyl)-2-hydroxy-3-[1,2,4]-triazol-1-yl-propyl]-6-n-heptylthieno[2,3-d]pyrimidin-4(3H)-one]: the MIC in experiment [1] is more than 2 µg/mL; in experiment [2] it was 0.06 to 0.12 µg/mL (≈ 0.123 to 0.246 µM); in experiment [3], more than 2 µg/mL.
With `O=c1c2c3c(sc2ncn1CC(O)(Cn1cncn1)c1ccc(F)cc1F)CCC3` (stereo not drawn) [Compound 1-A07, 3-[2-(2,4-Difluorophenyl)-2-hydroxy-3-[1,2,4]-triazol-1-yl-propyl]-3,5,6,7-tetrahydrocyclopenta[4,5]thieno[2,3-d]pyrimidin-4(3H)-one], the “MIC against fungi, F. proliferatum (ATCC 10052)” value (“MIC against fungi … (ATCC 10052)” for short) in experiment [1] is on record as “NI till 2 μg/ml”. Further, the “MIC against fungi, C. albicans (ATCC 24433)” value (shortened to “MIC against fungi, C. albicans”) in experiment [2] was 0.25 to 0.5 µg/mL. For the same compound, the “MIC against fungi, A. niger (ATCC 16404)” value in experiment [3] is on record as “NI till 2 μg/ml”.
Turning to `CCCCCc1c(C)sc2ncn(CC(O)(Cn3cncn3)c3ccc(F)cc3F)c(=O)c12` (stereo not drawn) [Compound 1-A08, 3-[2-(2,4-Difluorophenyl)-2-hydroxy-3-[1,2,4]triazol-1-yl-propyl]-6-methyl-5-npentyl-thieno[2,3-d]pyrimidin-4(3H)-one], in experiment [1], the “MIC against fungi … (ATCC 10052)” value is on record as “NI till 4 μg/ml”. The “MIC against fungi, C. albicans” value in experiment [2] fell in the range of 2 to 4 µg/mL. For the same compound, the “MIC against fungi, A. niger (ATCC 16404)” value in experiment [3] was “NI till 4 μg/ml”.
Regarding `O=c1c2c3c(sc2ncn1CC(O)(Cn1cncn1)c1ccc(F)cc1F)CCCC3` (stereo not drawn) [Compound 1-A09, 3-[2-(2,4-Difluorophenyl)-2-hydroxy-3-[1,2,4]-triazol-1-yl-propyl]-5,6,7,8-tetrahydrobenzothieno[2,3-d]pyrimidin-4(3H)-one], the results for the MIC in experiment [1], in experiment [2] and in experiment [3] were more than 8 µg/mL, 0.25 to 0.5 µg/mL (≈ 0.564 to 1.13 µM) and more than 8 µg/mL, respectively.
With `CCCCCCc1sc2ncn(CC(O)(Cn3cncn3)c3ccc(F)cc3F)c(=O)c2c1C` (stereo not drawn) [Compound 1-A10, 3-[2-(2,4-Difluorophenyl)-2-hydroxy-3-[1,2,4]-triazol-1-yl-propyl]-6-n-hexyl-5-methyl-thieno[2,3-d]pyrimidin-4(3H)-one], the MIC in experiment [1] was more than 2 µg/mL; in experiment [2] it was 1 to 2 µg/mL (≈ 2.05 to 4.1 µM); in experiment [3] it was more than 2 µg/mL.
In the case of `CCCCCc1sc2ncn(CC(O)(Cn3cncn3)c3ccc(F)cc3F)c(=O)c2c1C` (stereo not drawn) [Compound 1-A11, 3-[2-(2,4-Difluorophenyl)-2-hydroxy-3-[1,2,4]triazol-1-yl-propyl]-5-methyl-6-npentyl-thieno[2,3-d]pyrimidin-4(3H)-one], the “MIC against fungi … (ATCC 10052)” value in experiment [1] is “NI till 2 μg/ml”. Also, in experiment [2], the “MIC against fungi, C. albicans” value lay within 1 to 2 µg/mL. In addition, the “MIC against fungi, A. niger (ATCC 16404)” value in experiment [3] is on record as “NI till 2 μg/ml”.
As to `CC(=O)OCCCCCCCc1cc2c(=O)n(CC(O)(Cn3cncn3)c3ccc(F)cc3F)cnc2s1` (stereo not drawn) [Compound 1-A12, 6-(7-Acetoxyheptyl)-3-[2-(2,4-difluorophenyl)-2-hydroxy-3-[1,2,4]-triazol-1-ylpropyl]-thieno[2,3-d]pyrimidin-4(3H)-one], the minimum inhibitory concentration (MIC) in experiment [1] was more than 2 µg/mL; in experiment [2], 0.12 to 0.25 µg/mL (≈ 0.22 to 0.458 µM); in experiment [3], more than 2 µg/mL.
As for `O=c1c2cc(CCCCCCCO)sc2ncn1CC(O)(Cn1cncn1)c1ccc(F)cc1F` (stereo not drawn) [Compound 1-A13, 3-[2-(2,4-Difluorophenyl)-2-hydroxy-3-[1,2,4]triazol-1-yl-propyl]-6-(7-hydroxyheptyl)-thieno[2,3-d]pyrimidin-4(3H)-one], the figures for the MIC in experiment [1], in experiment [2] and in experiment [3] were more than 16 µg/mL, 0.12 to 0.25 µg/mL (≈ 0.238 to 0.496 µM) and more than 16 µg/mL, respectively.
As for `O=c1c2c(CCc3ccccc3)csc2ncn1CC(O)(Cn1cncn1)c1ccc(F)cc1F` (stereo not drawn) [Compound 1-A14, 3-[2-(2,4-Difluorophenyl)-2-hydroxy-3-[1,2,4]triazol-1-yl-propyl]-5(2-phenylethyl)-thieno[2,3-d]pyrimidin-4(3H)-one], the minimum inhibitory concentration (MIC) was more than 2 µg/mL in experiment [1], 0.5 to 1 µg/mL (≈ 1.01 to 2.03 µM) in experiment [2] and more than 2 µg/mL in experiment [3].
For the compound `Cc1c(Cc2ccccc2)sc2ncn(CC(O)(Cn3cncn3)c3ccc(F)cc3F)c(=O)c12` (stereo not drawn) [Compound 1-A15, 6-Benzyl-3-[2-(2,4-difluorophenyl)-2-hydroxy-3-[1,2,4]-triazol-1-yl-propyl]-5-methyl-thieno[2,3-d]pyrimidin-4(3H)-one], the minimal inhibitory concentration (MIC) is more than 4 µg/mL in experiment [1], 1 to 2 µg/mL (≈ 2.03 to 4.05 µM) in experiment [2] and more than 4 µg/mL in experiment [3].
As to `CCCCCCCCCCc1cc2c(=O)n(CC(O)(Cn3cncn3)c3ccc(F)cc3F)cnc2s1` (stereo not drawn) [Compound 1-A16, 6-n-Decyl-3-[2-(2,4-difluorophenyl)-2-hydroxy-3-[1,2,4]triazol-1-yl-propyl]thieno[2,3-d]pyrimidin-4(3H)-one], the values for the MIC in experiment [1], in experiment [2] and in experiment [3] were more than 2 µg/mL, 1 to 2 µg/mL (≈ 1.89 to 3.78 µM) and more than 2 µg/mL, respectively.
In the case of `CCCCCCCCCc1cc2c(=O)n(CC(O)(Cn3cncn3)c3ccc(F)cc3F)cnc2s1` (stereo not drawn) [Compound 1-A17, 3-[2-(2,4-Difluorophenyl)-2-hydroxy-3-[1,2,4]-triazol-1-yl-propyl]-6-n-nonylthieno[2,3-d]pyrimidin-4(3H)-one], the MIC in experiment [1] is more than 4 µg/mL; in experiment [2], 0.25 to 0.5 µg/mL (≈ 0.485 to 0.97 µM); in experiment [3], more than 4 µg/mL.
`CCCc1cc2c(=O)n(CC(O)(Cn3cncn3)c3ccc(F)cc3F)cnc2s1` (stereo not drawn) [Compound 1-A18, 3-[2-(2,4-Difluorophenyl)-2-hydroxy-3-[1,2,4]-triazol-1-yl-propyl]-6-(n-propyl)-thieno[2,3-d]pyrimidin-4(3H)-one]: the results for the MIC in experiment [1], in experiment [2] and in experiment [3] were more than 32 µg/mL, 0.06 to 0.12 µg/mL (≈ 0.139 to 0.278 µM) and more than 32 µg/mL, respectively.
Take `O=c1c2c3c(sc2ncn1CC(O)(Cn1cncn1)c1ccc(F)cc1F)CCCCCCCCCC3` (stereo not drawn) [Compound 1-A19, 3-[2-(2,4-Difluorophenyl)-2-hydroxy-3-[1,2,4]-triazol-1-yl-propyl]3,5,6,7,8,9,10,11,12,13,14-undecahydrocyclododeca[4,5]thieno[2,3-d]pyrimidin-4(3H)-one]: in experiment [1], the “MIC against fungi … (ATCC 10052)” value is “NI till 2 μg/ml”. Besides, the “MIC against fungi, C. albicans” value in experiment [2] is reported as “NI till 2 μg/ml”. Besides, in experiment [3], the “MIC against fungi, A. niger (ATCC 16404)” value is “NI till 2 μg/ml”.
For the compound `CCc1cc2c(=O)n(CC(O)(Cn3cncn3)c3ccc(F)cc3F)cnc2s1` (stereo not drawn) [Compound 1-A22, 3-[2-(2,4-Difluorophenyl)-2-hydroxy-3-[1,2,4]triazol-1-yl-propyl]-6-ethylthieno[2,3-d]pyrimidin-4(3H)-one], the minimum inhibitory concentration (MIC) is more than 16 µg/mL in experiment [1], 0.06 to 0.12 µg/mL (≈ 0.144 to 0.287 µM) in experiment [2] and more than 16 µg/mL in experiment [3].
As to `O=c1c2cc(CCCCO)sc2ncn1CC(O)(Cn1cncn1)c1ccc(F)cc1F` (stereo not drawn) [Compound 1-A23, 3-[2-(2,4-Difluorophenyl)-2-hydroxy-3-[1,2,4]-triazol-1-yl-propyl]-6-(4-hydroxybutyl)-thieno[2,3-d]pyrimidin-4(3H)-one], the MIC in experiment [1] is more than 64 µg/mL; in experiment [2], 1 to 2 µg/mL (≈ 2.17 to 4.33 µM); in experiment [3] it was more than 64 µg/mL.
For `CC(C)(C)OC(=O)NCC(=O)OCCCCc1cc2c(=O)n(CC(O)(Cn3cncn3)c3ccc(F)cc3F)cnc2s1` (stereo not drawn) [Compound 1-A24, 3-[2-(2,4-Difluorophenyl)-2-hydroxy-3-[1,2,4]triazol-1-yl-propyl]-6-(4-N-Bocaminoacetyloxybutyl)-thieno[2,3-d]pyrimidin-4(3H)-one], the “MIC against fungi … (ATCC 10052)” value in experiment [1] was “NI till 16 μg/ml”. In addition, the “MIC against fungi, C. albicans” value in experiment [2] fell in the range of 0.5 to 1 µg/mL. Moreover, the “MIC against fungi, A. niger (ATCC 16404)” value in experiment [3] is “NI till 16 μg/ml”.
